Measurements: patent EP4786487A1, “PEPTIDE” (Peptidream Inc, priority 2023, dated 2025)
Starred links: 1 amine or outer side, 2 acyl side, 3 side chain; linkers in the order of their positions; H or OH if unused. Positions of bridges follow the written chain, without caps; N, C: chain ends. Non-standard residues stand in square brackets, D forms with d. Residues, ends and D or L forms follow the SMILES beside them. Phe(3-OCH2COOH) = N[C@@H](Cc1cccc(OCC(=O)O)c1)C(=O)O; Phe(4-COOH) = N[C@@H](Cc1ccc(C(=O)O)cc1)C(=O)O; Gly(decyl) = CCCCCCCCCC[C@H](N)C(=O)O; Gly(N(CH2)3COOH) = O=C(O)CCCNCC(=O)O; Gly(octyl) = CCCCCCCC[C@H](N)C(=O)O; X1 = CCCCCCC[C@H](N[*:1])C(=O)[*:2]; NMeF = CN[C@@H](Cc1ccccc1)C(=O)O; Aoc(2) = CCCCCC[C@H](N)C(=O)O; Ahp(2) = CCCCC[C@H](N)C(=O)O; NMeA = CN[C@@H](C)C(=O)O; Sar = CNCC(=O)O

Legend:
Type in all cases: cell-based
Myostatin [1] = molecular target: T1, Myostatin (Homo sapiens, UniProt O14793); assay: Reporter gene assay for myostatin signaling in HepG2 cell line, Evaluation Procedure (1), myostatin inhibition; details: Method A: Myostatin 10 ng/mL; read-out: IC50 (Luciferase) Myostatin HepG2
T1 construct: active myostatin (also called mature myostatin) is a homodimer consisting of two C-terminal growth factor domains; purchased R&D systems 788-G8/CF
T1 sequence (O14793 267-375): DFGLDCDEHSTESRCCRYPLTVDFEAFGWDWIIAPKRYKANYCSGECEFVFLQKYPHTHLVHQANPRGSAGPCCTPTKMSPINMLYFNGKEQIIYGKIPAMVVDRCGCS
How it was run: (§1)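 HepG2 cells transfected with pGL3(CAGA)12-luciferase reporter, serum-starved in 0.1% BSA medium, then stimulated with myostatin or GDF-11 plus 4-fold peptide dilutions (0.006–100 nmol/L for myostatin, 0.12–2000 nmol/L for GDF-11) for 20–24 h at 37 °C. Luminescence read with One-Glo; IC50 calculated.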

Myostatin [2] = assay: as above; details: Method A; GDF-11 IC50 versus Myostatin IC50
How it was run: as §1

GDF-11 = molecular target: T2, GDF-11 (Homo sapiens, UniProt O95390); assay: Reporter gene assay for myostatin signaling in HepG2 cell line, Evaluation Procedure (1), GDF-11 inhibition; details: Method A: GDF-11 10 ng/mL; read-out: IC50 (Luciferase) GDF-11 HepG2
T2 construct: purchased R&D systems 1958-GD-G8/CF
T2 sequence (O95390 299-407): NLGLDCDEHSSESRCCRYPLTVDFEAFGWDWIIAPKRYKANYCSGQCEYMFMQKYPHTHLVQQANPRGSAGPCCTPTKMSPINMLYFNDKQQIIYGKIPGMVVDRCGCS
How it was run: as §1

IC50 (Myostatin [1]) [nM] | IC50 (GDF-11) [nM] | Compound | Selectivity (Myostatin [2])
1.2 | 139 | CCCCCCC[C@@H]1NC(=O)[C@H](Cc2ccccc2)N(C)C(=O)[C@H](CCCNC(=N)N)NC(=O)[C@H](Cc2ccc(C(=O)O)cc2)NC(=O)[C@H](Cc2cccc(OCC(=O)O)c2)NC(=O)[C@H](C)N(C)C(=O)[C@H]([C@@H](C)CC)NC(=O)[C@H](Cc2ccccc2)N(C)C(=O)[C@H](Cc2ccc(O)cc2)NC(=O)[C@H](Cc2c[nH]c3ccccc23)NC(=O)[C@H](C)NC(=O)[C@H](C)NC(=O)CSC[C@H](C(=O)O)NC(=O)[C@H](Cc2ccccc2)N(C)C(=O)[C@H](C)N(C)C1=O [Myostatin_99_v194] ({CH2CO}-AAWY[NMeF]I[NMeA][Phe(3-OCH2COOH)][Phe(4-COOH)]R[NMeF][X1][NMeA][NMeF][dC]-OH; thioether N-15) | 116
1.3 | 255 | CCCCCCC[C@@H]1NC(=O)[C@H](Cc2ccccc2)N(C)C(=O)[C@H](CCCNC(=N)N)NC(=O)[C@H](Cc2ccc(C(=O)O)cc2)NC(=O)[C@H](Cc2cccc(OCC(=O)O)c2)NC(=O)[C@H](C)N(C)C(=O)[C@H]([C@@H](C)CC)NC(=O)[C@H](Cc2ccccc2)N(C)C(=O)[C@H](Cc2ccc(O)cc2)NC(=O)[C@H](Cc2c[nH]c3ccccc23)NC(=O)[C@H](C)NC(=O)[C@H](C)N(C)C(=O)CSC[C@H](C(=O)O)NC(=O)[C@H](Cc2ccccc2)N(C)C(=O)[C@H](C)N(C)C1=O [Myostatin_99_v195] ({CH2CO}-[NMeA]AWY[NMeF]I[NMeA][Phe(3-OCH2COOH)][Phe(4-COOH)]R[NMeF][X1][NMeA][NMeF][dC]-OH; thioether N-15) | 196
3.4 | 603 | CCCCCCC[C@@H]1NC(=O)[C@H](Cc2ccccc2)N(C)C(=O)[C@H](CCCNC(=N)N)NC(=O)[C@H](Cc2ccc(C(=O)O)cc2)NC(=O)[C@H](Cc2cccc(OCC(=O)O)c2)NC(=O)[C@H](C)N(C)C(=O)[C@H]([C@@H](C)CC)NC(=O)[C@H](Cc2ccccc2)N(C)C(=O)[C@H](Cc2ccc(O)cc2)NC(=O)[C@H](Cc2c[nH]c3ccccc23)NC(=O)[C@H](C)NC(=O)CN(CCCC(=O)O)C(=O)CSC[C@H](C(N)=O)NC(=O)[C@H](Cc2ccccc2)N(C)C(=O)[C@H](C)N(C)C1=O [Myostatin_99_v196] ({CH2CO}-[Gly(N(CH2)3COOH)]AWY[NMeF]I[NMeA][Phe(3-OCH2COOH)][Phe(4-COOH)]R[NMeF][X1][NMeA][NMeF][dC]-NH2; thioether N-15) | 177
3.4 | 438 | CCCCCCC[C@@H]1NC(=O)[C@H](Cc2ccccc2)N(C)C(=O)[C@H](CCCNC(=N)N)NC(=O)[C@H](Cc2ccc(C(=O)O)cc2)NC(=O)[C@H](Cc2cccc(OCC(=O)O)c2)NC(=O)[C@H](C)N(C)C(=O)[C@H]([C@@H](C)CC)NC(=O)[C@H](Cc2ccccc2)N(C)C(=O)[C@H](Cc2ccc(O)cc2)NC(=O)[C@H](Cc2c[nH]c3ccccc23)NC(=O)[C@H](CO)NC(=O)[C@H](C)NC(=O)CSC[C@H](C(=O)O)NC(=O)[C@H](Cc2ccccc2)N(C)C(=O)[C@H](C)N(C)C1=O [Myostatin_99_v197] ({CH2CO}-ASWY[NMeF]I[NMeA][Phe(3-OCH2COOH)][Phe(4-COOH)]R[NMeF][X1][NMeA][NMeF][dC]-OH; thioether N-15) | 129
0.7 | 90 | CCCCCCCCCC[C@@H]1NC(=O)[C@H](Cc2ccccc2)N(C)C(=O)[C@H](CCCNC(=N)N)NC(=O)[C@H](Cc2ccc(C(=O)O)cc2)NC(=O)[C@H](Cc2cccc(OCC(=O)O)c2)NC(=O)[C@H](C)N(C)C(=O)[C@H]([C@@H](C)CC)NC(=O)[C@H](Cc2ccccc2)N(C)C(=O)[C@H](Cc2ccc(O)cc2)NC(=O)[C@H](Cc2c[nH]c3ccccc23)NC(=O)[C@H](C)NC(=O)CN(CCCC(=O)O)C(=O)CSC[C@H](C(=O)O)NC(=O)[C@H](Cc2ccccc2)N(C)C(=O)[C@H](C)N(C)C1=O [Myostatin_99_v198] ({CH2CO}-[Gly(N(CH2)3COOH)]AWY[NMeF]I[NMeA][Phe(3-OCH2COOH)][Phe(4-COOH)]R[NMeF][Gly(decyl)][NMeA][NMeF][dC]-OH; thioether N-15) | 123
1.2 | 159 | CCCCCCCC[C@@H]1NC(=O)[C@H](Cc2ccccc2)N(C)C(=O)[C@H](CCCNC(=N)N)NC(=O)[C@H](Cc2ccc(C(=O)O)cc2)NC(=O)[C@H](Cc2cccc(OCC(=O)O)c2)NC(=O)[C@H](C)N(C)C(=O)[C@H]([C@@H](C)CC)NC(=O)[C@H](Cc2ccccc2)N(C)C(=O)[C@H](Cc2ccc(O)cc2)NC(=O)[C@H](Cc2c[nH]c3ccccc23)NC(=O)[C@H](C)NC(=O)CN(CCCC(=O)O)C(=O)CSC[C@H](C(=O)O)NC(=O)[C@H](Cc2ccccc2)N(C)C(=O)[C@H](C)N(C)C1=O [Myostatin_99_v199] ({CH2CO}-[Gly(N(CH2)3COOH)]AWY[NMeF]I[NMeA][Phe(3-OCH2COOH)][Phe(4-COOH)]R[NMeF][Gly(octyl)][NMeA][NMeF][dC]-OH; thioether N-15) | 133
1 | 233 | CCCCCCCC[C@@H]1NC(=O)[C@H](Cc2ccccc2)N(C)C(=O)[C@H](CCCNC(=N)N)NC(=O)[C@H](Cc2ccc(C(=O)O)cc2)NC(=O)[C@H](Cc2cccc(OCC(=O)O)c2)NC(=O)CN(C)C(=O)[C@H]([C@@H](C)CC)NC(=O)[C@H](Cc2ccccc2)N(C)C(=O)[C@H](Cc2ccc(O)cc2)NC(=O)[C@H](Cc2c[nH]c3ccccc23)NC(=O)[C@H](C)NC(=O)CN(CCCC(=O)O)C(=O)CSC[C@H](C(=O)O)NC(=O)[C@H](Cc2ccccc2)N(C)C(=O)[C@H](C)N(C)C1=O [Myostatin_99_v200] ({CH2CO}-[Gly(N(CH2)3COOH)]AWY[NMeF]I[Sar][Phe(3-OCH2COOH)][Phe(4-COOH)]R[NMeF][Gly(octyl)][NMeA][NMeF][dC]-OH; thioether N-15) | 233
8.6 | 2260 | CCCCC[C@@H]1NC(=O)[C@H](Cc2ccccc2)N(C)C(=O)[C@H](CCCNC(=N)N)NC(=O)[C@H](Cc2ccc(C(=O)O)cc2)NC(=O)[C@H](Cc2cccc(OCC(=O)O)c2)NC(=O)CN(C)C(=O)[C@H]([C@@H](C)CC)NC(=O)[C@H](Cc2ccccc2)N(C)C(=O)[C@H](Cc2ccc(O)cc2)NC(=O)[C@H](Cc2c[nH]c3ccccc23)NC(=O)[C@H](C)NC(=O)[C@H](C)NC(=O)CSC[C@H](C(=O)O)NC(=O)[C@H](Cc2ccccc2)N(C)C(=O)[C@H](C)N(C)C1=O [Myostatin_99_v201] ({CH2CO}-AAWY[NMeF]I[Sar][Phe(3-OCH2COOH)][Phe(4-COOH)]R[NMeF][Ahp(2)][NMeA][NMeF][dC]-OH; thioether N-15) | 262
3.5 | 270 | CCCCCC[C@@H]1NC(=O)[C@H](Cc2ccccc2)N(C)C(=O)[C@H](CCCNC(=N)N)NC(=O)[C@H](Cc2ccc(C(=O)O)cc2)NC(=O)[C@H](Cc2cccc(OCC(=O)O)c2)NC(=O)CN(C)C(=O)[C@H]([C@@H](C)CC)NC(=O)[C@H](Cc2ccccc2)N(C)C(=O)[C@H](Cc2ccc(O)cc2)NC(=O)[C@H](Cc2c[nH]c3ccccc23)NC(=O)[C@H](C)NC(=O)[C@H](C)NC(=O)CSC[C@H](C(=O)O)NC(=O)[C@H](Cc2ccccc2)N(C)C(=O)[C@H](C)N(C)C1=O [Myostatin_99_v207] ({CH2CO}-AAWY[NMeF]I[Sar][Phe(3-OCH2COOH)][Phe(4-COOH)]R[NMeF][Aoc(2)][NMeA][NMeF][dC]-OH; thioether N-15) | 77
